One series concerns Staph. epidermidis 2588. The series is described as follows: MBC, standard assay procedures. Format: cell-based. To be noted: Staphylococcus epidermidis, 2588, read-out: MBC in μg/ml. The protocol: (§1) The in vitro minimal inhibitory concentration (MIC) and the in vitro minimal bactericidal concentration (MBC) of the AAJ-271 aglycones, pseudo-aglycone and vancomycin were determined for a number of microorganisms using the standard microtiter assay procedures.

Series [1] deals with Strep. pyogenes (Group A). In words: MBC, standard assay procedures. The series is classed as cell-based. The conditions noted are these: Streptococcus pyogenes, read-out: MBC in μg/ml. The protocol:
as §1

The next series deals with Staph. aureus 910. The series is described as follows: MBC, standard assay procedures. The conditions noted are these: Staphylococcus aureus, 910, read-out: MBC in μg/ml. Format: cell-based. The protocol: as §1
The test system of series [2] is Staph. aureus 209P vancomycin resistant mutant. In words: MBC, standard assay procedures. The conditions noted are these: Staphylococcus aureus, read-out: MBC in μg/ml. The series is classed as cell-based. Here is the method: as §1
Series [3] relates to Staph. saprophyticus 2657. In words: MBC, standard assay procedures. The series is classed as cell-based. To be noted: Staphylococcus saprophyticus, 2657, read-out: MBC in μg/ml. Here is the method: as §1
The subject of a further series is Staph. epidermidis 2256. The series is described as follows: MBC, standard assay procedures. Format: cell-based. The conditions noted are these: Staphylococcus epidermidis, 2256, read-out: MBC in μg/ml. The protocol: as §1
Series [4] relates to Staph. epidermidis 2261. In words: MBC, standard assay procedures. Format: cell-based. To be noted: Staphylococcus epidermidis, 2261, read-out: MBC in μg/ml. Here is the method: as §1
The next series has as its system Staph. aureus 209P. In words: MBC, standard assay procedures. Format: cell-based. The conditions noted are these: Staphylococcus aureus, 209P, read-out: MBC in μg/ml. Here is the method: as §1
Another series deals with Staph. aureus 2630. The series is described as follows: Mouse protection assay. Format: in vivo. To be noted: Staphylococcus aureus, 2630, 1 h.
The next series has as its system Staph. haemolyticus 651. In words: Mouse protection assay. The series is classed as in vivo. The conditions noted are these: Staphylococcus haemolyticus, 1 h; mice; Staph. haemolyticus 651, Dosage as No. of LD50's=9; treatment one hour post infection; Table IV.
Series [5] relates to Staph. aureus 209P vancomycin resistant mutant. The series is described as follows: MIC, standard microtiter assay. The series is classed as cell-based. The conditions noted are these: Staphylococcus aureus, read-out: MIC in μg/ml. The protocol: as §1
For series [6], the system named is Staph. epidermidis 2261. The series is described as follows: MIC, standard microtiter assay. The series is classed as cell-based. The conditions noted are these: Staphylococcus epidermidis, 2261, read-out: MIC in μg/ml. The protocol: as §1
The subject of the next series is Staph. aureus HH127. The series is described as follows: Mouse protection assay. Format: in vivo. To be noted: Staphylococcus aureus.
Series [7] can be described thus: Serum half-life and urine concentration in mice (disk agar diffusion bioassay). To be noted: mouse, in vivo; strain CD-1 mice; antibiotic activity in blood serum by disk agar diffusion, Bacillus subtilis ATCC 6633 indicator. The protocol: The antibiotic compounds of the present invention also have a very long serum half-life. The compounds of the present invention have a serum half-life of 12 hours compared to 0.3 hour for vancomycin. […] Antibiotic activity in blood serum was evaluated by disk agar diffusion with penicillin assay agar that was seeded with a Bacillus subtilis ATCC 6633 spore suspension as the indicator. Serum samples were evaluated against standards diluted in mouse serum and urines were evaluated against standards prepared in 1% pH 6 phosphate buffer. Assays were incubated at 28°C. […] The long half-life of the compounds of the present invention indicate usefulness prophylactically as an aid in prevention of infection.

A further series concerns Staph. aureus 2620. In words: MBC, standard assay procedures. Format: cell-based. The protocol:
The in vitro minimal bactericidal concentration (MBC) of the AAJ-271 C, C2 and C3 factors and vancomycin were determined for a number of microorganisms using standard assay procedures.
as §1

SMILES strings stand for the structures. Values after ≈ are worked out from the molar mass of the structure shown. Where two headings read alike, the source gives them in different places. Some results are limits rather than exact numbers.

As for `CN[C@H](CC(C)C)C(=O)N[C@H]1C(=O)N[C@@H](CC(N)=O)C(=O)N[C@H]2C(=O)N[C@H]3C(=O)N[C@H](C(=O)N[C@H](C(=O)O)c4cc(O)cc(O)c4-c4cc3ccc4O)[C@H](O)c3ccc(c(Cl)c3)Oc3cc2cc(c3O[C@@H]2O[C@H](CO)[C@@H](O)[C@H](O)[C@H]2O[C@H]2C[C@](C)(N)[C@H](O)[C@H](C)O2)Oc2ccc(cc2Cl)[C@H]1O` [Vancomycin, vancomycin], the MBC in the series on Staph. epidermidis 2588 was 6.3 µg/mL (≈ 4.35 µM); in series [1], 0.8 µg/mL (≈ 0.552 µM); with Staph. aureus 910, 1.6 µg/mL (≈ 1.1 µM); in series [2], more than 100 µg/mL; in [3], 6.3 µg/mL (≈ 4.35 µM); in the series on Staph. epidermidis 2256, 3.1 µg/mL (≈ 2.14 µM). Further, the MBC was 3.1 µg/mL (≈ 2.14 µM) with Staph. epidermidis 2261 [4]; 0.8 µg/mL (≈ 0.552 µM) with Staph. aureus 209P; 3.1 µg/mL (≈ 2.14 µM) with Staph. aureus 2620 (Staphylococcus aureus, 2620, read-out: MBC in μg/ml, Staph. aureus 2620, Table IX); 1.6 µg/mL (≈ 1.1 µM) with Staph. aureus 2620 (Staphylococcus aureus, 2620, read-out: MBC in μg/ml, Staph. aureus 2620, Table VIII); 3.1 µg/mL (≈ 2.14 µM) in the series on Staph. aureus 2620 (Staphylococcus aureus, IIIB, read-out: MBC in μg/ml, Staph. aureus 2620, Table IIIB). In addition, the median effective dose (ED50) with Staph. aureus 2630 amounted to 0.78 mg/kg; in the series with Staph. haemolyticus 651 it was 2.2 mg/kg; in the series with Staph. aureus HH127 (HH127, 1 h), 0.26 mg/kg; in the series with Staph. aureus HH127 (HH127, iv, 1 h), 2.8 mg/kg. The MIC was more than 100 µg/mL in [5] and 6.3 µg/mL (≈ 4.35 µM) with Staph. epidermidis 2261 [6]. This molecule gave a half-life in [7] of 18 min.
